What was measured:
Type in all cases: functional
Conditions in all cases: route subcutaneous
Mus musculus [1] = experiment: Antihyperglycemic activity in C57BL/KsJ db/db mouse at 5 mg/kg, sc administered twice a day for 4 days once on day 5 immediately after load injection by insulin suppression test relative to control
Mus musculus [2] = experiment: Antihyperglycemic activity in C57BL/KsJ db/db mouse at 5 mg/kg, sc administered twice a day for 4 days once on day 5 after 60 mins of load injection by insulin suppression test relative to control
Mus musculus [3] = experiment: Antihyperglycemic activity in C57BL/KsJ db/db mouse at 25 mg/kg, sc administered twice a day for 4 days once on day 5 immediately after load injection by insulin suppression test relative to control
Mus musculus [4] = experiment: Antihyperglycemic activity in C57BL/KsJ db/db mouse assessed as reduction in food intake at 25 mg/kg, sc administered twice a day for 4 days and once on day 5 relative to control; parameters: scale not given: the % may be the effect or the level left
Mus musculus [5] = experiment: Antihyperglycemic activity in C57BL/KsJ db/db mouse assessed as reduction in water consumption at 25 mg/kg, sc administered twice a day for 4 days and once on day 5 relative to control; parameters: scale not given: the % may be the effect or the level left
Mus musculus [6] = experiment: Antihyperglycemic activity in C57BL/KsJ db/db mouse at 25 mg/kg, sc administered twice a day for 4 days and once on day 5 after 60 mins of load injection by insulin suppression test relative to control
Mus musculus [7] = experiment: Antihyperglycemic activity in C57BL/KsJ db/db mouse at 13 mg/kg, sc administered twice a day for 4 days once on day 5 by insulin suppression test relative to control
Mus musculus [8] = experiment: Antihyperglycemic activity in C57BL/KsJ db/db mouse at 130 mg/kg, sc administered twice a day for 4 days once on day 5 by insulin suppression test relative to control

Compound CN(CCOc1ccc(CC2SC(=O)NC2=O)cc1)c1ccccn1 (configuration not stated) [ROSIGLITAZONE] has an Activity (Mus musculus [1]) of -29% and an Activity (Mus musculus [2]) of -39%.
For CN1CCN(/C(=N\c2ccc(F)cc2)NCCCCCCN)CC1, the Activity (Mus musculus [3]) was -21%, the Activity (Mus musculus [4]) was -14% and the Activity (Mus musculus [5]) was -35%. For the same compound, the Activity (Mus musculus [6]) was -12%.
In the case of CC(C)CCNC(=N)NCCCCCCN, the Activity (Mus musculus [3]) is reported as -17%, the Activity (Mus musculus [4]) is reported as -14% and the Activity (Mus musculus [5]) is reported as -24%. It also gave an Activity (Mus musculus [6]) of -24%.
With CC(C)=CCNC(=N)NCCCCN the Activity (Mus musculus [3]) was -13%, the Activity (Mus musculus [4]) was -37% and the Activity (Mus musculus [5]) was -53%. For the same compound, the Activity (Mus musculus [6]) was -11%.
In the case of N=C(NCCCCCCBr)NCC1CC1, the Activity (Mus musculus [3]) is reported as -12%, the Activity (Mus musculus [4]) is reported as -22% and the Activity (Mus musculus [5]) is reported as -30%. For the same compound, the Activity (Mus musculus [6]) was -20%.
In the case of N=C(NCCCCN)NCCCc1ccccc1, the Activity (Mus musculus [3]) is reported as 12%, the Activity (Mus musculus [4]) is reported as -33% and the Activity (Mus musculus [5]) is reported as -44%. The Activity (Mus musculus [6]) was -8%.
With NCCCCCCN/C(=N/c1ccc(F)cc1)N1CCCCC1 the Activity (Mus musculus [3]) was -15%, the Activity (Mus musculus [4]) was -22% and the Activity (Mus musculus [5]) was -41%. It also gave an Activity (Mus musculus [6]) of -8%.
CC(C)=CCNC(=N)N[C@H]1CC[C@H](N)CC1 showed an Activity (Mus musculus [3]) of -14%, an Activity (Mus musculus [4]) of -27% and an Activity (Mus musculus [5]) of -44%. The Activity (Mus musculus [6]) was -22%.
CC(C)=CCNC(=N)NCC1CCC(CN)CC1 (configuration not stated) showed an Activity (Mus musculus [3]) of -8%, an Activity (Mus musculus [4]) of -21% and an Activity (Mus musculus [5]) of -29%. The Activity (Mus musculus [6]) was -29%.
Compound CC(C)=CCNC(=N)NCCCCCCN has an Activity (Mus musculus [3]) of -31%, an Activity (Mus musculus [4]) of -19% and an Activity (Mus musculus [5]) of -53%. It also gave an Activity (Mus musculus [6]) of -13%.
CN(C)C(=N)NC(=N)N [METFORMIN] was tested, and the Activity (Mus musculus [7]) was -11% and the Activity (Mus musculus [8]) was -22%.
For N=C(NCCCCCCN)NCC1CC1, the Activity (Mus musculus [3]) was -42%, the Activity (Mus musculus [4]) was -19% and the Activity (Mus musculus [5]) was -45%. It also gave an Activity (Mus musculus [6]) of -18%.
In the case of N=C(NCC1CCC(CN)CC1)NCC1CC1 (configuration not stated), the Activity (Mus musculus [3]) is reported as -29%, the Activity (Mus musculus [4]) is reported as -40% and the Activity (Mus musculus [5]) is reported as -59%. For the same compound, the Activity (Mus musculus [6]) was -43%.
For CC(C)=CCNC(=N)NCCCCCN, the Activity (Mus musculus [3]) was -15%, the Activity (Mus musculus [4]) was -41% and the Activity (Mus musculus [5]) was -57%. It also gave an Activity (Mus musculus [6]) of -13%.
